Here are results for 19 molecules from article PMC8151276, “An Integrated Approach toward NanoBRET Tracers for Analysis of GPCR Ligand Engagement” (Molecules, 2021).

For the assay, the target named is T1, ADRA1D (Homo sapiens, UniProt P25100).
T1 construct: purchased Promega (in-house HiBiT-GPCR construct library, NanoBRET)
T1 sequence (P25100 1-572): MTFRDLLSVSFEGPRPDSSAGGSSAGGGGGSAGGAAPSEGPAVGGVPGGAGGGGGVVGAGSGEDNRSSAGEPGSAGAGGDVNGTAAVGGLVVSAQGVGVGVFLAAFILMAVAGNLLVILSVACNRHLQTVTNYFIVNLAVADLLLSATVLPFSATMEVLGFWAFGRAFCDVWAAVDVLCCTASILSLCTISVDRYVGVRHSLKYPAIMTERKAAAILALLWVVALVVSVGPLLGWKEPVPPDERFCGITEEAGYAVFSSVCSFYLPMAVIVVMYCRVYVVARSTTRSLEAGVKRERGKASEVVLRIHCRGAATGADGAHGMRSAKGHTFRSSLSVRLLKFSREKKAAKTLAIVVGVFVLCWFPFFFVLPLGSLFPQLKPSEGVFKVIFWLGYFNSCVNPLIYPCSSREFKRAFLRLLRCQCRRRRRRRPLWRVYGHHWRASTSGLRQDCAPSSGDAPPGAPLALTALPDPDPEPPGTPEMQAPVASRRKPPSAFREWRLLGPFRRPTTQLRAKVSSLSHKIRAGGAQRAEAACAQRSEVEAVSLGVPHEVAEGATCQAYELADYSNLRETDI
Put plainly: NanoBRET screen HiBiT-ADRA1D in HEK293. The class given is binding. The procedure:
Each tracer candidate was screened across the entire library of HiBiT-GPCR constructs using NanoBRET as the detection modality. As depicted in Figure 4A, the specificity of interactions was evaluated through decrease in BRET due to competitive displacement of a bound tracer by excess parental compound. Each tracer was analyzed for binding to each HiBiT-GPCR fusion in the absence and in the presence of competing parental compound. Briefly, HEK293 cells were transfected with HiBiT-GPCR constructs diluted into promoterless DNA to reduce expression and maximize translocation to the cell surface. Each tracer candidate was then screened at concentrations of 1 μM and 0.1 μM across cells expressing these fusions. Cells were treated for 1.5 h with tracer either alone or in the presence of 20 μM competing parental compound (i.e., control). BRET was measured upon addition of purified LgBiT and subsequent complementation with HiBiT genetically fused to a GPCR. The specificity of interactions was assessed through a decrease in BRET signal due to competitive displacement of the bound tracer. To further gauge the robustness of these interactions, the fold response over the control (i.e., BRETtracer/BRETcontrol) was calculated. We chose a 1.5-fold response, which translates to ≥7-fold signal over noise as the minimal threshold required to score an interaction as positive.
HiBiT-GPCR DNA constructs were diluted in 10 mM Tris pH 8 to a final concentration of 0.01 μg/μL, arrayed in 96-well plates and stored at −20 °C. For transfection, HEK293 cells were suspended in Opti-MEM (without phenol red) supplemented with 2% fetal bovine serum (Seradigm) and 100 units/mL penicillin–streptomycin (Gibco) at a final concentration of 220,000 cells/mL and dispensed into white 96-well plates at 90 μL/well. Subsequent transfections and screens were carried using an Agilent Bravo Automated Liquid Handling Platform. First, the 96-well HiBiT DNA arrays were diluted 25-fold in Opti-MEM (without serum or phenol red) to a final concentration of 0.0004 μg/μL and 20 μL of the diluted DNAs were transferred into new 96-well plates. Next, promoterless carrier DNA (1 μg/μL) was diluted 25-fold (0.04 μg/μL) and then dispensed into the diluted arrays at 20 μL/well. Following brief mixing, Viafect transfection reagent (Promega) diluted 16-fold into Opti-MEM was dispensed into the plates at 40 μL/well. After mixing by pipetting, plates were incubated for 10 min on the pipetting station deck. The DNA-transfection reagent complexes were then added to plates containing cells. To facilitate the screen, 10 μL of DNA-transfection reagent complexes were added in duplicates to the top 4 and bottom 4 rows, resulting in two identical 48-well arrays per plate. Plates with transfected cells were incubated for 18–20 h at 37 °C/5% CO2. A screen of each tracer across the entire library using two different concentrations requires duplicate plates of transfected cells. Depending on the number of tracers being screened, transfections can be scaled up using the same ratios. The next day, for each tracer, four 20× screening solutions in tracer dilution buffer (Promega) were prepared: two duplicates at final concentration of 20 μM and two duplicates at a final concentration of 2 μM. […] The four resulting solutions were diluted 4-fold in Opti-MEM without serum or phenol red to generate 5× solutions (5 µM and 0.5 µM tracer +/− 100 μM competing compound). To screen the library, a BioTek MultiFlo FX liquid dispenser was used to dispense 22.5 µL of tracer solution to the top 4 rows and 22.5 µL tracer + competing compound solution to the 4 bottom rows. Plates were briefly mixed on an orbital shaker and incubated for 1.5 h at room temperature. […] Plates were briefly mixed on an orbital shaker and incubated for 15 min to allow complementation.
In general terms: In BRET a luciferase serves as donor, and the signal depends on an acceptor being close.

In the case of `COc1ccc2c(n1)c(CCNC(C)=O)cn2CCNC(=O)CCc1ccc2n1[B-](F)(F)[N+]1=C(c3ccc[nH]3)C=CC1=C2` [Azamelatonin-1-NB590], the “NanoBRET Fold Response” value runs as follows: (0.1μM tracer) 1.04; (1μM tracer) 0.92.

`CC(C)N(CC[C@H](c1ccccc1)c1cc(CCNC(=O)c2ccc(CNC(=O)CCc3ccc4n3[B-](F)(F)[N+]3=C(c5ccc[nH]5)C=CC3=C4)cc2)ccc1O)C(C)C` [Tolterodine-BZ-NB590]: the “NanoBRET Fold Response” value runs as follows: (ADRA1D, tracer 0.1μM) 1.15; (ADRA1D, tracer 1μM) 1.05.

Turning to `O=C(CCc1ccc2n1[B-](F)(F)[N+]1=C(c3ccc[nH]3)C=CC1=C2)NCCOCCOCCNC(=O)OCCOCCN1CCN(C2=Nc3ccccc3Sc3ccccc32)CC1` [Quetiapine-a-2-NB590], the “NanoBRET Fold Response” value reads like this: (ADRA1D, tracer 0.1μM) 1.13; (ADRA1D, tracer 1μM) 1.06.

Regarding `Cc1cc2c(s1)Nc1ccccc1N=C2N1CCN(CCCNC(=O)CCOCCOCCOCCOCCNC(=O)CCc2ccc3n2[B-](F)(F)[N+]2=C(c4ccc[nH]4)C=CC2=C3)CC1` [Olanzapine-a-2-NB590], the “NanoBRET Fold Response” value (ADRA1D, tracer 1μM) stood at 1.06.

Consider `O=C(CCc1ccc2n1[B-](F)(F)[N+]1=C(c3ccc[nH]3)C=CC1=C2)NCc1ccc(C(=O)NCCOCCOCCNCC(O)COc2cccc3ccccc23)cc1` (stereo not shown) [Propranolol-3-NB590], for which the “NanoBRET Fold Response” value reads like this: (ADRA1D, 0.1μM) 1.11; (ADRA1D, 1μM) 1.09.

Take `O=C(CCc1ccc2n1[B-](F)(F)[N+]1=C(c3ccc[nH]3)C=CC1=C2)NCc1ccc(C(=O)NCCOCCC(=O)N[C@@H]2CC[C@@]3(O)[C@H]4Cc5ccc(O)c6c5[C@@]3(CCN4CC3CC3)[C@H]2O6)cc1` [Naltrexone-3-NB590]: the “NanoBRET Fold Response” value (ADRA1D, tracer 0.1μM) was 1.36 and the “NanoBRET Fold Response” value (ADRA1D, tracer 1μM) came out at 1.31.

For `CC(C)N(CC[C@H](c1ccccc1)c1cc(CCNC(=O)CCOCCOCCOCCOCCNC(=O)CCc2ccc3n2[B-](F)(F)[N+]2=C(c4ccc[nH]4)C=CC2=C3)ccc1O)C(C)C` [Tolterodine-2-NB590], the “NanoBRET Fold Response” value (ADRA1D, tracer 0.1μM) was found to be 0.95 and the “NanoBRET Fold Response” value (ADRA1D, tracer 1μM) worked out at 1.00.

In the case of `Cc1nc2n(c(=O)c1CCN1CCC(c3noc4cc(F)ccc34)CC1)CCCC2OC(=O)NCCOCCOCCOCCOCCNC(=O)CCc1ccc2n1[B-](F)(F)[N+]1=C(c3ccc[nH]3)C=CC1=C2` (stereo not shown) [Risperidone-2-NB590], the “NanoBRET Fold Response” value (ADRA1D, tracer 0.1μM) is given as 1.27 and the “NanoBRET Fold Response” value (ADRA1D, tracer 1μM) worked out at 1.16.

For `O=C(CCOCCOCCOCCOCCNC(=O)CCc1ccc2n1[B-](F)(F)[N+]1=C(c3ccc[nH]3)C=CC1=C2)NCCCN1CCN(C2=Nc3cc(Cl)ccc3Nc3ccccc32)CC1` [Clozapine-a-2-NB590], the “NanoBRET Fold Response” value is on record as 1.21 (ADRA1D, 0.1μM tracer) and 1.08 (ADRA1D, 1μM tracer).

On to `COc1ccc2[nH]c(-c3ccc(CNC(=O)CCOCCOCCOCCOCCNC(=O)CCc4ccc5n4[B-](F)(F)[N+]4=C(c6ccc[nH]6)C=CC4=C5)cc3)c(CCNC(C)=O)c2n1` [AzomelatoninICO9-2-NB590], for which the “NanoBRET Fold Response” value by setting is: (0.1μM tracer) 0.81; (1μM tracer) 0.96.

As to `COc1ccccc1N1CCN(CCCCN2C(=O)c3ccc(CNC(=O)CCOCCNC(=O)c4ccc(CNC(=O)CCc5ccc6n5[B-](F)(F)[N+]5=C(c7ccc[nH]7)C=CC5=C6)cc4)cc3C2=O)CC1` [NAN-190-3-NB590], the “NanoBRET Fold Response” value (ADRA1D, tracer 1μM) is listed as 1.16.

With `N#CN=C(NCCCOc1cccc(CN2CCCCC2)c1)NCCNC(=O)CCOCCOCCOCCOCCNC(=O)CCc1ccc2n1[B-](F)(F)[N+]1=C(c3ccc[nH]3)C=CC1=C2` [Aminopotentidine-2-NB590], for the setting “ADRA1D, tracer 0.1μM”, the “NanoBRET Fold Response” value worked out at 0.97.

Take `CN(C)CCC=C1c2ccccc2CCc2ccc(C(=O)NCCNC(=O)CCOCCOCCOCCOCCNC(=O)CCc3ccc4n3[B-](F)(F)[N+]3=C(c5ccc[nH]5)C=CC3=C4)cc21` [Amitriptyline-b-2-NB590]: the “NanoBRET Fold Response” value by setting is: (tracer at 0.1μM, listed as amitriptyline-b-2-NB590) 1.05; (tracer at 1μM, listed as amitriptyline-b-2-NB590) 1.07.

As to `COc1ccccc1N1CCN(CCCCN2C(=O)c3ccc(CNC(=O)CCOCCOCCOCCOCCNC(=O)CCc4ccc5n4[B-](F)(F)[N+]4=C(c6ccc[nH]6)C=CC4=C5)cc3C2=O)CC1` [NAN-190-2-NB590], the “NanoBRET Fold Response” value is, setting by setting: (ADRA1D, tracer 0.1μM) 1.10; (ADRA1D, tracer 1μM) 1.13.

On to `O=C(CCOCCOCCOCCOCCNC(=O)CCc1ccc2n1[B-](F)(F)[N+]1=C(c3ccc[nH]3)C=CC1=C2)NCCCN1CCN(C2=Nc3ccccc3Oc3ccc(Cl)cc32)CC1` [Loxapine-a-2-NB590], for which the “NanoBRET Fold Response” value was 1.07 (ADRA1D, tracer 0.1μM) and 1.24 (ADRA1D, tracer 1μM).

As for `CN(CCC=C1c2ccccc2CCc2ccccc21)C(=O)CCOCCOCCOCCOCCNC(=O)CCc1ccc2n1[B-](F)(F)[N+]1=C(c3ccc[nH]3)C=CC1=C2` [Amitriptyline-e-2-NB590], the “NanoBRET Fold Response” value (tracer at 1μM) is given as 1.07.

Take `CCCn1c(=O)c2[nH]c(-c3ccc(OCC(=O)NCCNC(=O)CCOCCNC(=O)c4ccc(CNC(=O)CCc5ccc6n5[B-](F)(F)[N+]5=C(c7ccc[nH]7)C=CC5=C6)cc4)cc3)nc2n(CCC)c1=O` [XAC-3-NB590]: the “NanoBRET Fold Response” value by setting is: (ADRA1D, tracer 0.1μM) 1.02; (ADRA1D, tracer 1μM) 1.10.

Regarding `CN(C)CCC=C1c2ccccc2CCc2ccc(C(=O)NCCNC(=O)CCOCCOCCOCCOCCNC(=O)CCc3ccc4n3[B-](F)(F)[N+]3=C(c5ccc[nH]5)C=CC3=C4)cc21` [Amitriptyline-a-2-NB590], the “NanoBRET Fold Response” value is 1.08 (tracer at 0.1μM) and 1.11 (tracer at 1μM).

Regarding `CCOC(=O)c1cc(C#N)c(N2CCC(C(=O)NS(=O)(=O)Cc3ccccc3/C=C/C(=O)NCCNC(=O)CCc3ccc4n3[B-](F)(F)[N+]3=C(c5ccc[nH]5)C=CC3=C4)CC2)nc1C` [AZD1283-1-NB590], the “NanoBRET Fold Response” value is reported as 1.02 (ADRA1D, 0.1μM) and 1.06 (ADRA1D, 1μM).
